Consider four molecules from paper PMC9085681, “Towards Optimized Bioavailability of ^99mTc-Labeled Barbiturates for Non-invasive Imaging of Matrix Metalloproteinase Activity” (Molecular Imaging and Biology, 2021).

Structures can show the parent of a compound that is named as a salt. Where two headings read alike, the source gives them in different places.

What is called IC50 is the concentration needed to halve the response being measured.

A short description of data set [1]: distribution coefficient (logDexp), 1-octanol / PBS-buffer. To be noted: 1-octanol / PBS-buffer pH = 7.4, 99mTc-labeled compound. The class given is physicochemical. The procedure:
The serum stability of all radiolabeled compounds was evaluated by incubation in human and murine serum at 37 °C for up to 120 min and analyzed by HPLC. The distribution coefficients (logDexp) were determined in a two-phase system consisting of 1-octanol and PBS-buffer (pH = 7.4) according to the literature.
Following a method described by Prante et al.[13], the distribution coefficient (logDexp) of the radioactive compound was determined in a two-phase system consisting of 1-octanol and PBS-buffer (pH = 7.4) to determine the lipophilicity. For this purpose, the corresponding ligand (~ 20 kBq) was dissolved in buffer (500 μL). 1-Octanol (500 μL) was added and the mixture was shaken at room temperature for 1 min. To achieve phase separation, the system was centrifuged for 2 min at 3000 rpm. Subsequently a part of the octanol phase (400 μL) was removed and buffer (400 μL) was added. The combined phases were shaken and layers were separated according to the description above. Aliquots of the buffer and octanol layers (3 × 100 μL from every layer) were taken to measure radioactivity in a γ-counter. The measurement provided the activity in counts per minute (cpm), the values were decay corrected. By calculating the quotient of cpm (1-Octanol)cpm (PBS) the logDexp can be determined as logcpm (1-Octanol)cpm (PBS).

The target in another data set is MMP-9 (Homo sapiens, UniProt P14780). Nature of the data set: in vitro MMP inhibition assay (fluorogenic substrate, protocol of Huang et al.). The class given is biochemical. On the procedure:
(§1) In order to evaluate the affinity of the new barbiturate-based compounds towards MMPs, an in vitro inhibition study was performed. The IC50-values were determined for MMP-2, MMP-8, MMP-9, MMP-13, and […] using the protocol from Huang et al. Additionally, the corresponding precursors were also measured and outlined in the SI for comparison.
(§2) To determine the relative potency of new inhibitors in terms of IC50-values the method developed by Huang et al. was applied in an in vitro inhibition study.[14] Compounds of interest were evaluated regarding affinity to MMP-2, -8, -9, -13 and -14 using the artificial MMP-substrate (7-Methoxycoumarine-4-yl)-acetyl-Pro-Leu-Gly-Leu-[3-(2,4-dinitrophenyl)-l-2,3-diaminopropionyl]-Ala-Arg-NH2 (R&D Systems, Minneapolis, USA). The activated form of the corresponding MMPs (2 nM each) were incubated at 37 °C with the barbiturate derivatives in different concentrations (10 pM-1 mM) in TRIS-buffer (50 mM, pH = 7.5), sodium chloride (0.2M), calcium chloride (5 mM), zinc sulfate (20 µM) and Brij® (0.05%) for 30 min. Samples of this mixture (90 µL) were added to the substrate (50 µM, 10 µL) at 37 °C and the increase of fluorescence as a function of time was measured using a TriStar² LB 942 Analyzers (Berthold Technologies, λEx = 330 nm, λEm = 390 nm). The linear change of relative fluorescence after 10 min was plotted as a function of the concentration of the used inbhibitor. The IC50-values were determined by non-linear regression using the Grace 5.1.8 software (Linux).

A further data set addresses MMP-13 (Homo sapiens, UniProt P45452). Described as above. It counts as biochemical. The procedure:
as §1, §2

Another data set concerns the target MMP-8 (Homo sapiens, UniProt P22894). The data set is described as above. It counts as biochemical. The procedure:
as §1, §2

The next data set has as its target MMP-14 (Homo sapiens, UniProt P50281). Described as above. It counts as biochemical. On the procedure: as §1, §2
Another data set has as its target T1, MMP-2 (Homo sapiens, UniProt P08253).
T1 sequence (P08253 110-660): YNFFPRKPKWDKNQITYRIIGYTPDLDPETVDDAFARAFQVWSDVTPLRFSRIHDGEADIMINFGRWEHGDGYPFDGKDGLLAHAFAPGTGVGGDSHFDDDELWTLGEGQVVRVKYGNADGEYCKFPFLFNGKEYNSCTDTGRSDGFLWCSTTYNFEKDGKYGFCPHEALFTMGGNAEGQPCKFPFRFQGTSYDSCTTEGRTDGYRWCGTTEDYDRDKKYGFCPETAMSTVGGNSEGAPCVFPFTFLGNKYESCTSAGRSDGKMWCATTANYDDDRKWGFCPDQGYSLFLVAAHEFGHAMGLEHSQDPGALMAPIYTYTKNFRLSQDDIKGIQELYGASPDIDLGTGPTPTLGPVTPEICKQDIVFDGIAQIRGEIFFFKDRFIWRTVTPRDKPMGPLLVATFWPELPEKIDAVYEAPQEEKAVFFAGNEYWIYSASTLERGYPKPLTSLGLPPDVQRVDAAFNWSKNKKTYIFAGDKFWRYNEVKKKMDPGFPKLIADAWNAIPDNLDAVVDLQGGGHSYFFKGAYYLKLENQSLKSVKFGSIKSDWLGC
The description is as above. The class given is biochemical. On the procedure:
as §1, §2

Where [2] appears, read: activated MMP 2 nM, 37 °C, 30 min preincubation, non-radioactive compound, read-out: IC50 MMP-9.
The mark [3] stands for this setting: activated MMP 2 nM, 37 °C, 30 min preincubation, non-radioactive compound, read-out: IC50 MMP-13.
Setting [4] is: activated MMP 2 nM, 37 °C, 30 min preincubation, non-radioactive compound, read-out: IC50 MMP-8.
The mark [5] stands for this setting: activated MMP 2 nM, 37 °C, 30 min preincubation, non-radioactive compound, read-out: IC50 MMP-14.
[6] abbreviates: activated MMP 2 nM, 37 °C, 30 min preincubation, non-radioactive compound, read-out: IC50 MMP-2.

Chain of MMP-9 (P14780 107-707 limits assumed, species assumed): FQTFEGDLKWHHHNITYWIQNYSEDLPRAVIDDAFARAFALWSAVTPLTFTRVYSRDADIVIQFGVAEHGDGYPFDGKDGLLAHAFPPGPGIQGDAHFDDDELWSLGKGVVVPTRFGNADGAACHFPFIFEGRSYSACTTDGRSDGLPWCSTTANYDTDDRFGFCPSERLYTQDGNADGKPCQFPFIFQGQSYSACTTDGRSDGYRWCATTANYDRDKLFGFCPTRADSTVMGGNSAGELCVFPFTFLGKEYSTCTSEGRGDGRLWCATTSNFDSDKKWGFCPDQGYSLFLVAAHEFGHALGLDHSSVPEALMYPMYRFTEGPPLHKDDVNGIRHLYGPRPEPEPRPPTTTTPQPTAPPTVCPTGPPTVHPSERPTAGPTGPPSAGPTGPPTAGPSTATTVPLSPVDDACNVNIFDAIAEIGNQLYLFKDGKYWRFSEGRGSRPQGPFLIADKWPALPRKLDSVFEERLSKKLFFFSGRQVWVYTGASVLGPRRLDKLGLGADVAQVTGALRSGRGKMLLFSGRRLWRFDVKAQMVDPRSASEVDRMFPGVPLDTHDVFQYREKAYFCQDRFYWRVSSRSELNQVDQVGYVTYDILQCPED
Chain of MMP-8 (P22894 101-467, species assumed): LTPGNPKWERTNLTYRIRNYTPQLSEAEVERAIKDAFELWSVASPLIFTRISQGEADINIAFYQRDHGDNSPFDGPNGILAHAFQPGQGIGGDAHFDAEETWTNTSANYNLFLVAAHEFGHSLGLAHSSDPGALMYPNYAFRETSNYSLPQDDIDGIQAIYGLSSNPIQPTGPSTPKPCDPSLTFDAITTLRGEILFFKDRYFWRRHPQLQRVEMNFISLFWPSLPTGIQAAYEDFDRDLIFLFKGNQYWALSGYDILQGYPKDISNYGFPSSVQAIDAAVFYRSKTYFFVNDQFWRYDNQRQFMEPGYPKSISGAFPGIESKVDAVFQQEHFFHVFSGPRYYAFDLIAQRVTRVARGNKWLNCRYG

With `N[C@@H](Cc1cn(CCOCCOCCOCCN2CCN(C3(c4ccc(Oc5ccccc5)cc4)C(=O)NC(=O)NC3=O)CC2)nn1)C(=O)[O][Re](=[C]=O)(=[C]=O)=[C]=O` [MEA39, (S)-2-Amino-3-[1-(2-{2-[2-(2-{4-[2,4,6-trioxo-5-(4-phenoxyphenyl)-hexahydropyrimidine-5-yl]piperazine-1-yl}ethoxy)ethoxy]ethoxy}ethyl)-1H-1,2,3-triazol-4-yl]propionic acid-carbonyl rhenium(I)], the “LogD (compound labeled by [^99mTc])” value in data set [1] is recorded as 0.79 ± 0.03. The IC50 at MMP-9 (setting [2]) is 0.9 ± 0.1 nM; at MMP-13 (setting [3]), 2 ± 0.3 nM; at MMP-8 (setting [4]), 28 ± 7 nM; at MMP-14 (setting [5]), 5.9 ± 0.7 nM; at MMP-2 (setting [6]) it was 2 ± 0.5 nM.
Turning to `NCCCC[C@H](NCc1cn(CCOCCOCCOCCN2CCN(C3(c4ccc(Oc5ccccc5)cc4)C(=O)NC(=O)NC3=O)CC2)nn1)C(=O)[O-].O=[C]=[Re+](=[C]=O)=[C]=O` [MEA61, {[1-(2-{2-[2-(2-{4-[2,4,6-Trioxo-5-(4-phenoxyphenyl)hexahydropyrimidin-5-yl]piperazin-1-yl}ethoxy)ethoxy]ethoxy}ethyl)-1H-1,2,3-triazol-4-yl]methyl}-L-lysinate tricarbonylrhenium(I)], in data set [1], the “LogD (compound labeled by [^99mTc])” value was found to be 0.35 ± 0.23. For the same molecule, the IC50 on MMP-9 (setting [2]) was 8 ± 0.5 nM; at MMP-13 (setting [3]) it was 26 ± 0.6 nM; at MMP-8 (setting [4]), 5.5 ± 0.4 nM; on MMP-14 (setting [5]), 14 ± 0.8 nM; at MMP-2 (setting [6]), 3.6 ± 0.7 nM.
`N[C@@H](Cc1cn(CCOCCOCCOCCN2CCN(C3(c4ccc(Oc5ccccc5)cc4)C(=O)NC(=O)NC3=O)CC2)nn1)C(=O)O` [compound 14, (S)-2-Amino-3-[1-(2-{2-[2-(2-{4-[2,4,6-trioxo-5-(4-phenoxyphenyl)-hexahydropyrimidine-5-yl]piperazine-1-yl}ethoxy)ethoxy]ethoxy}ethyl)-1H-1,2,3-triazol-4-yl]propionic acid potassium salt]: the half-inhibitory concentration (IC50) at MMP-9 (read-out: IC50 MMP-9, activated MMP 2 nM, 37 °C, 30 min preincubation, non-radioactive compound) was determined as 1.4 ± 0.3 nM; at MMP-13 (read-out: IC50 MMP-13, activated MMP 2 nM, 37 °C, 30 min preincubation, non-radioactive compound), 27 ± 9 nM; on MMP-8 (read-out: IC50 MMP-8, activated MMP 2 nM, 37 °C, 30 min preincubation, non-radioactive compound), 3.6 ± 2.6 nM; at MMP-14 (read-out: IC50 MMP-14, activated MMP 2 nM, 37 °C, 30 min preincubation, non-radioactive compound), 1.5 ± 0.4 nM; at MMP-2 (read-out: IC50 MMP-2, activated MMP 2 nM, 37 °C, 30 min preincubation, non-radioactive compound), 0.6 ± 0.1 nM.
In the case of `NCCCC[C@H](NCc1cn(CCOCCOCCOCCN2CCN(C3(c4ccc(Oc5ccccc5)cc4)C(=O)NC(=O)NC3=O)CC2)nn1)C(=O)O` [compound 17, {[1-(2-{2-[2-(2-{4-[2,4,6-Trioxo-5-(4-phenoxyphenyl)hexahydropyrimidin-5-yl]piperazin-1-yl}ethoxy)ethoxy]ethoxy}ethyl)-1H-1,2,3-triazol-4-yl]methyl}-L-lysinate], the IC50 on MMP-9 came out at 10 ± 2 nM; against MMP-13, 58 ± 9 nM; against MMP-8, 18 ± 3 nM; on MMP-14 it was 19 ± 2 nM; against MMP-2, 7 ± 3 nM.
